We go through eight compounds from patent US6759431B2, “Compositions and methods for treating or preventing diseases of body passageways” (Angiotech Pharmaceuticals, Inc., priority 1996, dated 2004).

Values joined by “and” are separate entries in the source; they are usually repeats but may differ in a detail not shown here. Identical values can stand only once. Like-named read-outs stand apart in the source and are kept apart here.

One data set deals with CAM. The class given is in vivo, chick. To be noted: for drug loading that was toxic to the embryo: chick, in vivo. As for the experimental part: Vinca alkaloids (vinblastine and vincristine) were ground with a pestle and mortar to reduce the particle size to below 5 microns. They were then mixed as a dry powder with polycaprolactone (molecular wt. 18000 Birmingham Polymers, AL USA). The mixture is heated to 65° C. for 5 minutes and the molten polymer/agent mixture is stirred into a smooth paste for 5 minutes. The molten paste is then taken into a 1 ml syringe and extruded to form 3 mg pellets. These pellets were then tested in the CAM assay.

Data set [1] in a line: Complexation of paclitaxel with cyclodextrins (stability constants). The class given is physicochemical. To be noted: for estimated stability constants for first order complexes of paclitaxel-cyclodextrins / stability constants for second order complexes of paclitaxel-cyclodextrins: water, 37° C. As for the experimental part: Excess amounts of paclitaxel (5 mg) were added to aqueous solutions containing various concentrations of γ-CD, HPγ-CD, or HPβ-CD and tumbled gently for about 24 hours at 37° C. After equilibration, aliquots of the suspension were filtered through a 0.45 μm membrane filter (Millipore), suitably diluted and analyzed using HPLC. […] Aliquots were taken at various time intervals and assayed for paclitaxel.

Data set [2] deals with normal human bone marrow cells. The data set can be described thus: Radiometric (Bactec) cytotoxicity, marrow cells. It is filed as cell-based. The method, then: Normal human bone marrow (histologically negative for tumor cells) was obtained from patients who were to have bone marrow transplants for their solid tumors but died before the marrow was used. After centrifugation, the buffy coat was removed and cells were treated with lysis buffer and washed twice with and then resuspended in RPMI 1640 with 20% HIFBS. The cells were drawn through a 25 g needle and counted.
(§1) The Bactec system (Johnston Laboratories, Towson, Md.) is based on a clinical instrument which was developed to detect bacteria in blood cultures and has been used to screen for new antineoplastic agents. This radiometric system is a rapid, semiautomated system which utilizes the inhibition of the conversion of ^14C glucose to […] as an index of cytotoxicity. The Bactec machine automatically flushes out the ^14CO2 into an ion chamber where the signal of the radiolabelled CO2 is changed into a proportional electrical signal or growth index value on a scale of 1 to 1000. […] The growth index values of BMOV treated cells were compared to the growth index values of non-treated cells and the % survival compared to untreated controls was calculated.

The subject of data set [3] is HT-29 colon, MCF-7 breast and SKMES1 non-small cell lung human tumor cell lines. The data set can be described thus: Radiometric (Bactec) cytotoxicity, tumor cell lines. To be noted: continuous exposure. The class given is cell-based. The method, then:
A. Human Tumor Cell Lines The HT-29 colon, MCF-7 breast and SKMES1 non-small cell lung human tumor cell lines were obtained from the American Type Culture Collection. The HT-29 colon cell line was cultured in RPMI 1640 with 10% heat inactivated fetal bovine serum (HIFBS), the MCF-7 breast cell line in Iscove's modified Eagles medium with 5% HIFBS plus 10^-9 M insulin, and the SKMES1 lung cell line in Eagle's minimal essential medium with 10% non-heat inactivated FBS.
as §1

A further data set deals with MDAY-D2 tumor. The data set can be described thus: BMOV microspheres, tumor growth in mice. The class given is in vivo. To be noted: s.c. As for the experimental part:
(§2) Twenty of twenty-four mice were injected subcutaneously with […] of MDAY-D2 cells with density of 10×10^6/ml. On day 6 the mice were divided into 6 groups. Group 1, empty control, group 2, tumor control, group 3, were injected subcutaneously with 0.25 mg/100 ul BMOV, twice a day. Group 4 was injected IP with 20 mg PLLA microspheres containing 5 mg of BMOV. Group 5 was injected IP with 10 mg of BMOV microspheres on day 6 and day 9 respectively. Group 6 was injected intramuscularly with 10 mg of BMOV microspheres on day 6 and day 9. On day 16, the mice were sacrificed and tumors were dissected.

Data set [4] can be described thus: Solubility of vanadium complexes in PBS/ALB. The class given is physicochemical. To be noted: 10 mM PBS with albumin, pH 7.4. The method, then:
Quantitative analysis (UV/VIS spectrophometric analysis) was done with different concentrations of vanadium solutions to obtain the wavelengths of peak absorbance and the calibration equations. Solubility of vanadium was studies in 10 mM phosphate buffered saline with albumin (PBS/ALB) (pH 7.4). 1%, 5%, 10%, and 20% (% vanadium complex in PCL) of each organic complex form of vanadium were encapsulated in a biodegradable polymer PCL and/or in blends of PLC with MePEG (MW 350) to produce a polymeric drug delivery product called a “thermopaste”. In vitro release studies of the various forms of vanadium from thermopastes were carried out at 37° C. in PBS/ALB with vanadium release measured by UV/VIS absorbance spectroscopy.

A short description of data set [5]: Body weights of mice, BMOV microsphere study. It is filed as in vivo. To be noted: 0.25 mg × 1, subcutaneous, in g (unit assumed). The method, then:
as §2

Data set [6] is described as follows: Release from 50:50 ELVAX:poly-l-lactic acid microspheres, tumbling at 37° C. It is filed as physicochemical. To be noted: 18 hours tumbling at 37° C. The method, then: Five hundred micrograms of either paclitaxel or baccatin (a paclitaxel analog, available from Inflazyme Pharmaceuticals Inc., Vancouver, British Columbia, Canada) are dissolved in 1 ml of a 50:50 ELVAX:poly-1-lactic acid mixture in dcm. Microspheres are then prepared in a dissolution machine (Six-spindle dissolution tester, VanderKanp, Van Kell Industries Inc., U.S.A.) in triplicate at 200 rpm, 42° C., for 3 hours. Microspheres so prepared are washed twice in water and sized on the microscope.
Determination of paclitaxel encapsulation is undertaken in a uv/vis assay (uv/vis lambda max. at 237 nm, fluorescence assay at excitation 237, emission at 325 nm; Fluorescence results are presented in square brackets [ ]).

Data set [7] in a line: Solubility of paclitaxel in cyclodextrin solutions. The class given is physicochemical. To be noted: 50% HPβCD in water, 37° C.
Protocol: Excess amounts of paclitaxel (5 mg) were added to aqueous solutions containing various concentrations of γ-CD, HPγ-CD, or HPβ-CD and tumbled gently for about 24 hours at 37° C. After equilibration, aliquots of the suspension were filtered through a 0.45 μm membrane filter (Millipore), suitably diluted and analyzed using HPLC. The mobile phase was composed of a mixture of acetonitrile, methanol and water (58:5:37) at a flow rate of 1.0 ml min^−1.
The nature of data set [8]: Stability of paclitaxel in cyclodextrin solutions. It is filed as physicochemical. As for the experimental part:
The solutions containing 20% HPβCD or HPγCD had pH values of 3.9 and 5.2, respectively. The stability of paclitaxel in cyclodextrin solutions was investigated by assaying paclitaxel in solutions (20 μg ml^−1) containing 10 or 20% HPγ-CD or HPβ-CD in either water or a 50:50 water-ethanol mixture at 37° C. or 55° C. at various time intervals. In addition, stability of paclitaxel in solutions (1 μg/ml) containing 1%, 2% or 5% HPβCD at 55° C. were determined.

Setting [9] is: fluorescence assay (square brackets).

In the case of `CC[C@]1(O)C[C@@H]2CN(CCc3c([nH]c4ccccc34)[C@@](C(=O)OC)(c3cc4c(cc3OC)N(C)[C@H]3[C@@](O)(C(=O)OC)[C@H](OC(C)=O)[C@]5(CC)C=CCN6CC[C@]43[C@@H]65)C2)C1` [Vinblastine, vinblastine], the “angiogenesis inhibition on the CAM” value with CAM (0.25%, 0.5% and 1% in PCL pellets) is recorded as “effective in inhibiting angiogenesis”. In addition, in the data set with CAM, the “drug loading that was toxic to the embryo” value is “exceeding 2%”.
Take `OC[C@H]1O[C@@H]2O[C@H]3[C@H](O)[C@@H](O)[C@@H](O[C@H]4[C@H](O)[C@@H](O)[C@@H](O[C@H]5[C@H](O)[C@@H](O)[C@@H](O[C@H]6[C@H](O)[C@@H](O)[C@@H](O[C@H]7[C@H](O)[C@@H](O)[C@@H](O[C@H]8[C@H](O)[C@@H](O)[C@@H](O[C@H]9[C@H](O)[C@@H](O)[C@@H](O[C@H]1[C@H](O)[C@H]2O)O[C@@H]9CO)O[C@@H]8CO)O[C@@H]7CO)O[C@@H]6CO)O[C@@H]5CO)O[C@@H]4CO)O[C@@H]3CO` [γ-CD, γ-cyclodextrin]: in [1], the “estimated stability constants for first order complexes of paclitaxel-cyclodextrins” value (“estimated stability constants” for short) is 3.1 M⁻¹ and the “stability constants for second order complexes of paclitaxel-cyclodextrins” value was 785 M⁻¹.
In the case of `Cc1occc(=O)c1[O-].Cc1occc(=O)c1[O-].[O]=[V+2]` [BMOV, Bis[maltolato(oxovanadium)] (IV)]], in data set [2] (continuous exposure, 50 μM), the “survival compared to untreated controls” value stood at 49%. Also, in [2] (one hour exposure, up to 50 μM), the effect on cells entry is recorded as “very little effect”. Besides, the “antineoplastic effect in vitro” value in data set [3] is listed as “antineoplastic effect of BMOV have been shown in vitro”. Besides, the “Tumor weight, Average” value with MDAY-D2 tumor is listed as 0.15. Moreover, the “Tumor weight, individual mice” value in the data set on MDAY-D2 tumor (listed as BMOV solution) was 0.04 and 0.4 and 0.12 and 0.07. Further, in data set [4], the “rate and extent of solubility, order” value was “V5>BMOV & BEMOV>PRC-V”. The “Body weights, Average” value in [5] was 17.87. Also, in data set [5] (listed as BMOV Solution), the “Body weights, individual mice” value is 18.4 and 17.3 and 18 and 17.8.
Take `CC(=O)O[C@H]1C(=O)[C@@]2(C)[C@H]([C@H](OC(=O)c3ccccc3)[C@]3(O)C[C@H](OC(=O)[C@H](O)[C@@H](NC(=O)c4ccccc4)c4ccccc4)C(C)=C1C3(C)C)[C@]1(OC(C)=O)CO[C@@H]1C[C@@H]2O` [paclitaxel]: the figures for the “percent of total released from the microspheres” value in [6] (setting [9]) and in data set [6] (uv/vis assay) were 6% and 10.3%, respectively. For the same compound, the “fold increase over the solubility of paclitaxel in water” value in data set [7] is approximately 2000 fold. In data set [8] (1 μg/ml paclitaxel, 1% HPβCD, 55° C.), the “degradation rate constant k (pseudo-first order)” value came out at 0.00338 h⁻¹. Also, the degradation rate constant in data set [8] (10% HPβCD (FIG. 47 legend: 20 μg ml^−1, 37° C.)) is 0.00178 h⁻¹; in [8] (10% HPγCD (FIG. 47 legend: 20 μg ml^−1, 37° C.)), 0.00096 h⁻¹.
In the case of baccatin, the “percent of total released from the microspheres” value in [6] (setting [9]) is 60%; in data set [6] (uv/vis assay), 55%.
hydroxypropyl-γ-cyclodextrin [HPγCD]: in data set [1], the “estimated stability constants” value is 5.8 M⁻¹ and the “stability constants for second order complexes of paclitaxel-cyclodextrins” value came out at 1886 M⁻¹.
As to `CC[C@]1(O)C[C@H]2CN(CCc3c([nH]c4ccccc34)[C@@](C(=O)OC)(c3cc4c(cc3OC)N(C=O)[C@H]3[C@@](O)(C(=O)OC)[C@H](OC(C)=O)[C@]5(CC)C=CCN6CC[C@]43[C@@H]65)C2)C1` [vincristine], the “angiogenesis inhibition on the CAM” value in the data set on CAM (0.5% and 0.1% drug loading in PCL pellets) is “all of the CAMs tested”. The “drug loading that was toxic to the embryo” value with CAM is given as “exceeding 2%”.
As for Hydroxypropyl-β-cyclodextrin [HPβCD], the “times lower than the stability constant in the absence of ethanol” value in data set [1] (50% ethanol) is given as “about 300 times”. Besides, the “apparent stability constant for the complexation with paclitaxel” value in data set [1] (in the presence of 50% ethanol) was found to be 26.57 M⁻¹. Also, in data set [1], the “estimated stability constants” value is 7.2 M⁻¹ and the “stability constants for second order complexes of paclitaxel-cyclodextrins” value stood at 7965 M⁻¹.
